{"source": "patent US20100234832A1", "about": "“METHOD FOR VASCULAR TREATMENT” (priority 2009, published 2010)", "system": "femoral nerve", "assay": "Femoral nerve block with lidocaine injected under echographic/ultrasound control", "assay_type": "in vivo, human", "description": "To accomplish femoral nerve block, an appropriate amount of local anesthetic is injected in the vicinity of femoral nerve close to the femoral artery under ultrasound control. After anesthesia takes effect, a needle is inserted through the skin into the vein to be treated and an optical fiber is introduced inside it. A typical procedure to carry out this task is to insert a guide wire inside the vein through needle's lumen, after the anesthesia has been introduced and takes effect. Once the guide wire is inserted, a dilator is used to slightly increase the size of the punction made onto the skin, in order to accomplish an easy catheter insertion. After catheter is inserted, guide wire is extracted and optical fiber is inserted through the catheter inside the vein and is advanced to the desired start position.\nA main objective of this femoral block is to achieve sensory nerve function for blockage only, thus the least amount of lidocaine used yields the least probability for motor function to be affected. […] As a consequence, there is some minimal amount needed, which might differ by patient and procedure for an adequate and complete sensory block.\nLidocaine solutions much above 0.5% are thus not preferred, as the likelihood of concomitant loss of motor control along with the desired sensory blockage becomes too great, rendering patient recovery period longer. Concentration of other local anesthetics, with differing activity, would have a somewhat different effective range of preferred use.\nA safe and effective femoral block procedure is achieved by sequentially carrying out the following steps: • 1. Attach monitors and if necessary give light sedation. • 2. Put patient in supine position with the operative leg slightly abducted. • 3. Prepare the groin. • 4. Place a transducer with the appropriate frequency range (10-12 MHz) along the inguinal crease. If the femoral artery and nerve are deep (>4 cm), use a 7 MHz transducer. • 5. Optimize machine imaging capability; select appropriate depth of e d (usually within 1-3 cm), focus range and gain. • 6. Identify the femoral artery. […]", "data": [{"smiles": "CCN(CC)CC(=O)Nc1c(C)cccc1C", "note": "[lidocaine]", "values": [{"measurement": "anesthetic effect (sensory femoral nerve block)", "setting": "0.1% lidocaine, femoral block", "result": "functioned well"}, {"measurement": "motor function blockage", "setting": "20 ml of 1% lidocaine, femoral block", "result": "also blocked motor function"}, {"measurement": "femoral block", "setting": "20 ml of lidocaine, concentration 0.1% to 0.5%, injected under echographic control", "result": "accomplish the femoral block"}]}]}
